Data reported in PubChem BioAssay AID330 (DTP/NCI, 2004).
Several values for one entry are separate records, joined by “and”; a condition that tells them apart may be missing. Equal values may be shown once. Inconclusive results and toxic doses are left out.

Test system: P388 leukemia ip, CD2F1 mice, survival T/C
Experiment: NCI In Vivo Anticancer Drug Screen. Data for tumor model P388 Leukemia (intraperitoneal) in CD2F1 (CDF1) mice
Conditions: endpoint: median survival time, higher = longer survival
Outline: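 Mice carrying the transplanted tumor received test compound or vehicle. Survival was recorded in each group, and the value is the treated-group measurement divided by that of the vehicle-treated control group.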

[1] = dose: 50.0 mg/kg/injection, schedule: Q01DX005 (ip), vehicle: saline with Tween-80
[2] = dose: 100.0 mg/kg/injection, schedule: Q01DX005 (ip), vehicle: saline with Tween-80
[3] = dose: 200.0 mg/kg/injection, schedule: Q01DX005 (ip), vehicle: saline with Tween-80
[4] = dose: 50.0 mg/kg/injection, schedule: Q01DX009 (ip), vehicle: Klucel (hydroxypropylcellulose) (HPC)
[5] = dose: 100.0 mg/kg/injection, schedule: Q01DX009 (ip), vehicle: Klucel (hydroxypropylcellulose) (HPC)
[6] = dose: 200.0 mg/kg/injection, schedule: Q01DX009 (ip), vehicle: Klucel (hydroxypropylcellulose) (HPC)
[7] = dose: 60.0 mg/kg/injection, schedule: Q01DX005 (ip), vehicle: saline with Tween-80
[8] = dose: 120.0 mg/kg/injection, schedule: Q01DX005 (ip), vehicle: saline with Tween-80
[9] = dose: 240.0 mg/kg/injection, schedule: Q01DX005 (ip), vehicle: saline with Tween-80
[10] = dose: 50.0 mg/kg/injection, schedule: Q01DX009 (ip), vehicle: saline
[11] = dose: 25.0 mg/kg/injection, schedule: Q01DX009 (ip), vehicle: saline
[12] = dose: 100.0 mg/kg/injection, schedule: Q01DX009 (ip), vehicle: saline with Tween-80
[13] = dose: 200.0 mg/kg/injection, schedule: Q01DX009 (ip), vehicle: saline with Tween-80

`CC(=O)OCC1OC(NC(=S)NCC(=O)c2ccccc2)C(OC(C)=O)C(OC(C)=O)C1OC(C)=O` (centres undefined) was tested, and the T/C [1] was 99 % of control, the T/C [2] was 99 % of control and the T/C [3] was 98 % of control.
In the case of `CC(C)(CBr)COP1(=O)NCC(C)(C)CO1` (centres undefined), the T/C (dose: 50.0 mg/kg/injection, schedule: Q01DX005 (ip), vehicle: Klucel (hydroxypropylcellulose) (HPC)) was 106 % of control, the T/C (dose: 100.0 mg/kg/injection, schedule: Q01DX005 (ip), vehicle: Klucel (hydroxypropylcellulose) (HPC)) was 105 % of control and the T/C (dose: 200.0 mg/kg/injection, schedule: Q01DX005 (ip), vehicle: Klucel (hydroxypropylcellulose) (HPC)) was 106 % of control.
With `O=C(CCSCCCl)Nc1c(C(=O)O)cc([N+](=O)[O-])cc1[N+](=O)[O-]` the T/C (dose: 3.13 mg/kg/injection, schedule: Q04DX003 (ip), vehicle: DMSO) was 94 % of control, the T/C (dose: 6.25 mg/kg/injection, schedule: Q04DX003 (ip), vehicle: DMSO) was 100 % of control and the T/C (dose: 12.5 mg/kg/injection, schedule: Q04DX003 (ip), vehicle: DMSO) was 102 % of control. For the same compound, the T/C (dose: 25.0 mg/kg/injection, schedule: Q04DX003 (ip), vehicle: DMSO) was 111 % of control, the T/C (dose: 50.0 mg/kg/injection, schedule: Q04DX003 (ip), vehicle: DMSO) was 102 % of control and 109 % of control and the T/C (dose: 100.0 mg/kg/injection, schedule: Q04DX003 (ip), vehicle: DMSO) was 116 % of control.
For `c1ccc(C[N+]23CCC(CC2)C3c2ccccc2)cc1` (centres undefined), the T/C (dose: 3.75 mg/kg/injection, schedule: Q01DX005 (ip), vehicle: saline) was 103 % of control, the T/C (dose: 7.5 mg/kg/injection, schedule: Q01DX005 (ip), vehicle: saline) was 103 % of control and the T/C (dose: 15.0 mg/kg/injection, schedule: Q01DX005 (ip), vehicle: saline) was 104 % of control.
For `CCCCCCCCCCC(=O)CCCCCC`, the T/C (dose: 50.0 mg/kg/injection, schedule: Q01DX009 (ip), vehicle: other) was 90 % of control, the T/C (dose: 100.0 mg/kg/injection, schedule: Q01DX009 (ip), vehicle: other) was 100 % of control and the T/C (dose: 200.0 mg/kg/injection, schedule: Q01DX009 (ip), vehicle: other) was 109 % of control.
`Cc1ccc2nc(N/N=C/c3cccnc3)sc2c1` was tested, and the T/C [4] was 105 % of control, the T/C [5] was 100 % of control and the T/C [6] was 96 % of control.
With `CC(=O)NS(=O)(=O)c1ccc(N=NC2=C(O)C(c3ccccc3)N(c3ccccc3)C2=O)cc1` (centres undefined) the T/C [7] was 96 % of control and the T/C [8] was 91 % of control.
In the case of `O=C1C=C2C=CC(O)C(O)C2O1` (centres undefined), the T/C (dose: 2.5 mg/kg/injection, schedule: Q01DX009 (ip), vehicle: Klucel (hydroxypropylcellulose) (HPC)) was 102 % of control, the T/C (dose: 5.0 mg/kg/injection, schedule: Q01DX009 (ip), vehicle: Klucel (hydroxypropylcellulose) (HPC)) was 98 % of control and the T/C (dose: 10.0 mg/kg/injection, schedule: Q01DX009 (ip), vehicle: Klucel (hydroxypropylcellulose) (HPC)) was 100 % of control. For the same compound, the T/C (dose: 20.0 mg/kg/injection, schedule: Q01DX009 (ip), vehicle: Klucel (hydroxypropylcellulose) (HPC)) was 94 % of control.
`C(=NCCSSCCN=Cc1ccccc1)c1ccccc1` was tested, and the T/C [7] was 93 % of control, the T/C [8] was 93 % of control and the T/C [9] was 103 % of control.
`CN(C)C(=C[N+](=O)[O-])N(C)C` was tested, and the T/C [10] was 101 % of control, the T/C (dose: 100.0 mg/kg/injection, schedule: Q01DX009 (ip), vehicle: saline) was 103 % of control and the T/C (dose: 200.0 mg/kg/injection, schedule: Q01DX009 (ip), vehicle: saline) was 104 % of control.
With `O=C(/C=C/c1c(-c2ccccc2)[nH]c2ccccc12)c1ccc([N+](=O)[O-])cc1` the T/C [7] was 97 % of control, the T/C [8] was 90 % of control and the T/C [9] was 87 % of control.
With `O=NNc1ncc(Cl)cc1Cl` the T/C (dose: 1.56 mg/kg/injection, schedule: Q01DX009 (ip), vehicle: water) was 106 % of control, the T/C (dose: 3.12 mg/kg/injection, schedule: Q01DX009 (ip), vehicle: water) was 101 % of control and the T/C (dose: 6.0 mg/kg/injection, schedule: Q01DX009 (ip), vehicle: water) was 118 % of control. The T/C (dose: 6.25 mg/kg/injection, schedule: Q01DX009 (ip), vehicle: water) was 107 % of control, the T/C (dose: 12.5 mg/kg/injection, schedule: Q01DX009 (ip), vehicle: water) was 111 % of control and 120 % of control and the T/C (dose: 25.0 mg/kg/injection, schedule: Q01DX009 (ip), vehicle: water) was 120 % of control.
With `Cn1cnc([N+](=O)[O-])c1S(=O)(=O)NCN1CCOCC1` the T/C (dose: 6.25 mg/kg/injection, schedule: Q01DX009 (ip), vehicle: Klucel (hydroxypropylcellulose) (HPC)) was 116 % of control and the T/C (dose: 12.5 mg/kg/injection, schedule: Q01DX009 (ip), vehicle: Klucel (hydroxypropylcellulose) (HPC)) was 119 % of control.
`CC(C)CCCC(C)CCOCCN1CCCCC1` (centres undefined) was tested, and the T/C (dose: 12.5 mg/kg/injection, schedule: Q01DX005 (ip), vehicle: saline with Tween-80) was 100 % of control, the T/C (dose: 25.0 mg/kg/injection, schedule: Q01DX005 (ip), vehicle: saline with Tween-80) was 113 % of control and the T/C [1] was 109 % of control and 114 % of control.
In the case of `COc1ccc2c(c1)C(C)(C#N)N(C)C(=O)C2=O` (centres undefined), the T/C (dose: 100.0 mg/kg/injection, schedule: Q01DX001 (ip), vehicle: saline with Tween-80) was 100 % of control, the T/C (dose: 200.0 mg/kg/injection, schedule: Q01DX001 (ip), vehicle: saline with Tween-80) was 101 % of control and the T/C (dose: 400.0 mg/kg/injection, schedule: Q01DX001 (ip), vehicle: saline with Tween-80) was 96 % of control.
With `C=C1C(=O)OC2/C=C(\C)C(O)/C=C\C(C)(O)CC(OC(=O)/C(C)=C/C)C12` (centres undefined) the T/C (dose: 10.0 mg/kg/injection, schedule: Q01DX009 (ip), vehicle: saline) was 114 % of control, the T/C (dose: 20.0 mg/kg/injection, schedule: Q01DX009 (ip), vehicle: saline) was 101 % of control and the T/C (dose: 40.0 mg/kg/injection, schedule: Q01DX009 (ip), vehicle: saline) was 108 % of control.
For `CCCCCCN=C(N)N/N=C(\C)c1ccc2c(c1)Cc1cc(/C(C)=N/NC(N)=NCCCCCC)ccc1-2`, the T/C (dose: 6.25 mg/kg/injection, schedule: Q04DX002 (ip), vehicle: saline with Tween-80) was 98 % of control, the T/C (dose: 12.5 mg/kg/injection, schedule: Q04DX002 (ip), vehicle: saline with Tween-80) was 107 % of control and the T/C (dose: 25.0 mg/kg/injection, schedule: Q04DX002 (ip), vehicle: saline with Tween-80) was 109 % of control. For the same compound, the T/C (dose: 50.0 mg/kg/injection, schedule: Q04DX002 (ip), vehicle: saline with Tween-80) was 116 % of control.
`Cc1ccc(S(=O)(=O)C(C)(C)C(O)c2ccccc2)cc1` (centres undefined) was tested, and the T/C [1] was 100 % of control, the T/C [2] was 99 % of control and the T/C [3] was 92 % of control.
In the case of `NC(N)=N/N=C/c1ccc(Cl)cc1Cl`, the T/C [11] was 104 % of control and the T/C [10] was 106 % of control.
`Clc1ccc2ncnc(Nc3ccccc3)c2c1` was tested, and the T/C [4] was 91 % of control, the T/C [5] was 100 % of control and the T/C [6] was 86 % of control.
In the case of `CNN(C)P(=S)(Oc1ccccc1)N(C)NC`, the T/C [1] was 101 % of control, the T/C [2] was 103 % of control and the T/C [3] was 102 % of control.
In the case of `CC(C(=O)O)c1ncnn1-c1ccccc1` (centres undefined), the T/C (dose: 60.0 mg/kg/injection, schedule: Q01DX005 (ip), vehicle: saline) was 105 % of control, the T/C (dose: 120.0 mg/kg/injection, schedule: Q01DX005 (ip), vehicle: saline) was 104 % of control and the T/C (dose: 240.0 mg/kg/injection, schedule: Q01DX005 (ip), vehicle: saline) was 102 % of control.
In the case of `CCCCCCCCCCCCCCCC(=O)N(CCC#N)CCC#N`, the T/C [12] was 185 % of control and the T/C [13] was 100 % of control.
For `Cc1cccc(N=NC2Sc3nc4ccccc4n3C2=O)c1` (centres undefined), the T/C (dose: 60.0 mg/kg/injection, schedule: Q01DX005 (ip), vehicle: Klucel (hydroxypropylcellulose) (HPC)) was 89 % of control and the T/C (dose: 120.0 mg/kg/injection, schedule: Q01DX005 (ip), vehicle: Klucel (hydroxypropylcellulose) (HPC)) was 91 % of control.
For `O=C1CNC(=O)c2cc(N=Cc3ccccc3O)ccc2N1`, the T/C (dose: 100.0 mg/kg/injection, schedule: Q04DX003 (ip), vehicle: saline with Tween-80) was 111 % of control, the T/C (dose: 200.0 mg/kg/injection, schedule: Q04DX003 (ip), vehicle: saline with Tween-80) was 114 % of control and the T/C (dose: 400.0 mg/kg/injection, schedule: Q04DX003 (ip), vehicle: saline with Tween-80) was 104 % of control.
With `NCCNCC[OH2+].NCCNCC[OH2+].[Ni+2].[O-][Cl+3]([O-])([O-])[O-]` the T/C (dose: 12.5 mg/kg/injection, schedule: Q01DX009 (ip), vehicle: saline) was 100 % of control, the T/C [11] was 93 % of control and the T/C [10] was 106 % of control and 93 % of control.
In the case of `O=C(O)c1nn(Cc2ccc(Cl)cc2)c2ccccc12`, the T/C (dose: 50.0 mg/kg/injection, schedule: Q01DX009 (ip), vehicle: saline with Tween-80) was 109 % of control, the T/C [12] was 103 % of control and the T/C [13] was 110 % of control.
